Source: paper PMC6646369, “A new bioavailable fenretinide formulation with antiproliferative, antimetabolic, and cytotoxic effects on solid tumors” (Cell Death & Disease, 2019)

Key:
Format in all cases: cell-based, human
[1] = tested on: LCSC2 lung cancer spheroid cells; experiment: Cell viability assay (CellTiter-Glo); settings: LCSC2, GT11 0,5µM plus SA 2µM plus Rapamycin 10nM, 48 hours
Procedure: (§1) Cell viability upon treatment with NanoFEN, zVAD, NAC, 3-MA, Myriocin, PPMP, GT11, SA and Rapamycin was determined by CellTiter-Glo luminescent cell viability assay (Promega, Madison, WI, USA) according to the manufacturer’s directions. Briefly, lung and colorectal spheroids were dissociated mechanically or with TrypLE Express (Thermo Fisher Scientific) respectively and seeded 3 × 10^3 per well in 96-well plates (three replicates per experimental point) in serum-free medium, and incubated in a humidified atmosphere at 37 °C, 5% CO2. Cells were treated with the respective compounds and analysed after the appropriate time period as described in detail in Figure Legends. Luminescence was detected with a DTX880 multimode microplate reader (Beckman Coulter, Brea, CA, USA).

[2] = tested on: CSC 7 colorectal spheroid cells; experiment: Cell viability assay (CellTiter-Glo)
Procedure: as §1

[3] = tested on: LCSC6 lung cancer spheroid cells; experiment: Cell viability assay (CellTiter-Glo)
Procedure: as §1, with “Briefly,” for “Cell viability upon treatment with NanoFEN, zVAD, NAC, 3-MA, Myriocin, PPMP, GT11, SA and Rapamycin was determined by CellTiter-Glo luminescent cell viability assay (Promega, Madison, WI, USA) according to the manufacturer’s directions. Briefly,”

[4] = tested on: reactive oxygen species (ROS) in LCSC6; experiment: Measurement of intracellular ROS levels (CM-H2DCFDA, flow cytometer); settings: LCSC6, NAC 2mM for 1h, then NanoFEN 4,9µM for 48 hours
Procedure: An equal number of dissociated spheroid cells (2.5 × 10^5) were seeded in 6-well cell culture plates. Briefly, each cell line was incubated with NanoFEN at IC50 concentration and pre-treated for 1 h with the antioxidant N-Acetyl-Cysteine (NAC). At different times, the cells were washed twice with pre-warmed Phosphate Saline Buffer (PBS) and then incubated in the same buffer containing 5 μM CM-H2DCFDA with DMSO alone at 37 °C. The fluorescence intensity of DCF was measured at 527 nm emission wavelength after excitation at 492 nm at 1 h intervals for up to 48 h using a Flow Cytometer Accuri (Becton Dickinson). An increase in fluorescence intensity as arbitrary units indicated the net generation of intracellular ROS.

[5] = tested on: Aldefluor activity (ALDH) in LCSC6; experiment: Cytofluorimetric analysis of Aldefluor activity; settings: LCSC6, representative analysis; NanoFEN at IC50 dose, Gemcytabine 25 µM; CTRL 38,6%
Procedure: Values represent mean ± SD of three independent experiments. **P < 0.01; ***P < 0.001 from two-tailed t-test. d Schematic representation of stem-like factors (repressed in grey) emerged from RPPA analysis of lung CSCs treated as described in Fig. 4a. e Cytofluorimetric analysis of Aldefluor activity on LCSC6 treated with NanoFEN at IC50 dose and Gemcytabine 25 μM for 48 h. Values represent mean ± SD of three independent experiments. **P < 0.01; ***P < 0.001 from two-tailed t-test. f qRT-PCR analysis of indicated genes on whole tumor lysates derived from LCSC6 xenografts, untreated or treated with NanoFEN 30 mg/Kg/week and Cis 3 mg/Kg/week and Gem 60 mg/Kg/week (Cis + Gem). Values represent mean ± SD of three independent experiments. *P < 0.05; **P < 0.01 from two-tailed t-test. g Flow cytometry analysis of TOP-GFP.mc-transduced CSC7, untreated and treated with NanoFEN at the IC50 dose 0.2 μM and OXA 10 μM for 48 h. Values represent mean ± SD of three independent experiments. **P < 0.01 from two-tailed t-test. h Volume of xenografts derived from CSC10 transduced with TOP-GFP.mc untreated (black downward triangles) or treated with vehicle or treated NanoFEN 30 mg/Kg/week (green upward triangles) and OXA 5 mg/Kg/week plus 5FU 12.5 mg/Kg/week (red squares). […]

CO[C@H]1C[C@@H]2CC[C@@H](C)[C@@](O)(O2)C(=O)C(=O)N2CCCC[C@H]2C(=O)O[C@H]([C@H](C)C[C@@H]2CC[C@@H](O)[C@H](OC)C2)CC(=O)[C@H](C)/C=C(\C)[C@@H](O)[C@@H](OC)C(=O)[C@H](C)C[C@H](C)/C=C/C=C/C=C/1C [rapamycin]
effect on the toxic effects of the SA/GT11 combination (cell viability) [1]: significantly potentiated
effect on the toxic effects of the SA/GT11 combination (cell viability) ([2]; CSC7, GT11 0.5 μM plus SA 2 μM plus Rapamycin 10 nM, 48 h): significantly potentiated
effect on the toxic effects of the SA/GT11 combination (cell viability) ([3]; LCSC6, GT11 0.5 μM plus SA 2 μM plus Rapamycin 10 nM, 48 h): significantly potentiated

CCCCCCC(=O)CCCCCC/C=C/C[C@@H](O)[C@H](O)[C@@](N)(CO)C(=O)O [myriocin]
effect on NanoFEN-induced death (cell viability) ([2]; CSC7, Myriocin 1 μM plus NanoFEN 0.2 μM, 48 h): partially protected
effect on NanoFEN-induced death (cell viability) ([3]; LCSC6, Myriocin 1 μM plus NanoFEN 4.9 μM, 48 h): partially protected

CC(=O)N[C@@H](CS)C(=O)O [NAC, N-Acetyl-L-Cysteine]
effect on NanoFEN-induced death (cell viability) ([2]; CSC7 pretreated with NAC 2 mM for 1 h, then NanoFEN 0.2 μM, 48 h): partially rescued
effect on NanoFEN-induced death (cell viability) ([3]; LCSC6 pretreated with NAC 2 mM for 1 h, then NanoFEN 4.9 μM, 48 h): partially rescued
ROS levels in NanoFEN-treated cells after pretreatment [4]: reduced

Nc1ccn([C@@H]2O[C@H](CO)[C@@H](O)C2(F)F)c(=O)n1 [Gem, gemcitabine]
ALDH+ [5]: 74,6%

COC(=O)C[C@H](NC(=O)[C@H](C)NC(=O)[C@@H](NC(=O)OCc1ccccc1)C(C)C)C(=O)CF (racemic) [zVAD-fmk, z-Val-Ala-DL-Asp-fluoromethylketone]
effect on NanoFEN-induced toxicity (cell viability) ([2]; CSC7 pretreated with zVAD 40 μΜ, then NanoFEN 0.2 μM, 48 h): did not substantially inhibit
effect on NanoFEN-induced toxicity (cell viability) ([3]; LCSC6 pretreated with zVAD 40 μΜ, then NanoFEN 4.9 μM, 48 h): did not substantially inhibit

CCCCCCCCCCCCCCC[C@@H](O)[C@@H](N)CO [SA, sphinganine]
cell viability ([3]; LCSC6, 48 hours, SA 2, 4, 6 µM, GT11 0,5, 2, 5 µM): dose-dependent viability decrease

CCCCCCCCCCCCCCCC(=O)NC(CN1CCOCC1)C(O)c1ccccc1 (stereo not shown) [PPMP, 1-phenyl-2-palmitoylamino-3-morpholino-1-propanol]
effect on NanoFEN-induced death (cell viability) ([2]; CSC7, PPMP 10 μM plus NanoFEN 0.2 μM, 48 h): unable to block
effect on NanoFEN-induced death (cell viability) ([3]; LCSC6, PPMP 10 μM plus NanoFEN 4.9 μM, 48 h): unable to block

Cn1cnc(N)c2ncnc1-2 [3-MA, 3-Methyladenine]
effect on NanoFEN-induced death (cell viability) ([2]; CSC7, 3-MA 5 mM plus NanoFEN 0.2 μM, 24 h): able to counteract
effect on NanoFEN-induced death (cell viability) ([3]; LCSC6, 3-MA 5 mM plus NanoFEN 4.9 μM, 24 h): able to counteract
